From US9879020B2, “GABAA agonists and methods of using to control airway hyperresponsiveness and inflammation in asthma” (priority 2012, dated 2018)
Where “and” joins values, the source holds several entries; their conditions need not be identical. Equal entries are not always repeated. Entries after “also recorded” stand apart in the source; their conditions may differ. Where two headings read alike, the source gives them in different places.

Key:
[1] = tested on: GABAAR containing single α-subunits; assay: Patch clamp assay of chloride-flux inward currents at GABAAR containing single α-subunits (FIG. 12); assay type: cell-based; details: dose-response curves, α4 or α6 GABAAR compared to other α-subtypes
Excerpt: Selectivity is quantified by dose-response curves showing greater inward currents (i.e., agonist activity) by action of GABAAR bearing a4 or a6 compared to other α-subtypes.
Two compounds having selective activity bias for α4-GABAAR were identified (FIG. 12). Patch clamp assays were used to quantify chloride flux induced inward currents resulting from agonism of GABAAR containing single α-subunits.

human Jurkat E6-1 cells = assay: Automated patch clamp (IonFlux) for potentiation of GABA, membrane polarization in Jurkat E6-1 cells; assay type: cell-based; details: tested with 0.1 μM GABA; preliminary assay development studies
Description: Inserts show inward rectifying currents ([…]) at various doses. Compounds tested with 0.1 μM GABA. Curves show average of four determinations at indicated doses and standard deviations.
Both compounds were investigated using a CD4+ T-lymphocyte cell line (Jurkat E6-1) for potentiation of GABA using automated patch clamp (IonFlux). In contrast to manual patch clamp assays; this high throughput system enables dose dependent efficacy testing of more than 20 test conditions per day.

murine tracheal rings = assay: Relaxation of acetylcholine-induced contraction in murine tracheal rings (wild type and GABAA α4 knockout), Example 13; details: CMD-45 100 uM, 30 minutes, ACh ~EC50; wild type vs GABAA α4 knockout mice; p<0.01 vs vehicle
Excerpt: Adult male C57/B16 wild type mice or adult male mice globally deficient in the GABAA a4 subunit (from Dr. Gregg Homanics, University of Pittsburgh) were euthanized with an overdose of sodium pentobarbital. Tracheas were rapidly removed and placed in modified Krebs-Henseleit buffer of the following composition in mM: 115 NaCl, 2.5 KCl, 1.91 CaCl2, 2.46 MgSO4, 1.38 NaH2PO4, 25 NaHCO3, 5.56 D-glucose: pH 7.4 Connective tissue was removed under a dissecting microscope and tracheas were cut in half axially. One-half trachea was used in each chamber of a myograph bath (DMT: Ann Arbor, Mich.), one-half used for vehicle treatment and the other half used for drug (i.e. CMD-45) treatment. […] Tension was continuously digitally recorded using BioPac hardware connected to Acknowledge software. […] An ACh ˜EC50 was determined for each tracheal ring based on these dose response curves.
In relaxation studies, tracheal ring were contracted to the determined ˜EC50 and force was allowed to plateau. Single concentrations of vehicle (0.1% DMSO) or CMD-45 (100 uM) were added and continuous muscle force was measured over 30 minutes. The data are expressed as the percent of remaining tone at 30 minutes relative to the initial force achieved with the EC50 concentration of acetylcholine. […]

GP tracheal rings = assay: Direct relaxation of guinea pig tracheal rings contracted with TEA or substance P; details: CM-D-45 200 um, 15 minutes
Description: Male Hartley guinea pigs (approximately 400 g) were anesthetized with intraperitoneal pentobarbital (100 mg/kg). Trachea were removed and dissected under a dissecting microscope into closed rings comprised of two cartilaginous segments. Epithelium was removed by gentle abrasion on the tracheal lumen with cotton. Tissues were placed into cold Krebs-Henseleit (KH) buffer (in mM: NaCl 118, KCl 5.6, CaCl2 0.5, MgSO4 0.24, NaH2PO4 1.3, NaHCO3 25, glucose 5.6, pH 7.4) containing indomethacin 10 uM (DMSO final concentration in organ baths of 0.01%) to block tone due to endogenous release of prostanoids. […]
To determine the direct relaxant effect of α4 subunit containing GABAA receptor activation using different contractile agonists, GP tracheal rings prepared according to Reference Example 3 were contracted with a single dose (10 mM) of TEA or (1 uM) substance P. Following a plateau in the generated muscle force, a single dose of CM-D-45 (200 um) or vehicle control (DMSO 0.1%) was added to the organ bath buffer and the percentage of relaxation achieved was assessed over 15 minutes in comparison to intra-experimental matched vehicle controls.

[2] = tested on: Guinea pig tracheal rings; assay: Airway smooth muscle force in guinea pig ex vivo tracheal rings, Example 20; details: added after acetylcholine EC50 contraction
Description: Male (400 g) Dunkin Hartley guinea pigs were anesthetized with 100 mg/kg pentobarbital. Trachea were removed and divided into 8 closed circular rings each comprised of 2 cartilagenous segments. Adventitia and epithelium were dissected off under a microscope. Closed rings were suspended in 2 ml Radnoti organ baths connected to a Grass FT03 force transducer under 1 g resting tension at 37° C. with bubbled oxygenation 95% O2/5% CO2 and allowed to equilibrate for 1 h at resting tension with buffer exchanges every 15 min. Continuous digital recording of airway smooth muscle contractile force was done with Biopac hardware connected to Acknowledge v 7.3.3 software. Preliminary contractile challenges with performed with acetylcholine dose responses (0.1 nM-100 uM) 3 times with buffer exchanges and resetting of resting tension between each dose response. The Guinea pig tracheal rings were contracted with acetylcholine (an EC50 concentration for each ring). Following stabilization of the contractile force, the GABAA α5 selective negative modulator or the GABAA non-selective antagonist gabazine was added to the buffer.

GABAA receptors [3] = assay: FLIPR membrane potential fluorescent dye assay in cultured human airway smooth muscle cells; assay type: cell-based; details: for antagonism of THIP-induced fluorescent / membrane potential changes: picrotoxin 200 uM, THIP 500 uM and 1 mM
Description: (§1) Human immortalized bronchial smooth muscle cell lines prepared as described were grown to confluence in M199 media (Gibco) containing 10% fetal bovine serum, 0.25 ng/ml epidermal growth factor, 1 ng/ml fibroblast growth factor, ITS supplement (1 mg/ml insulin, 0.55 mg/ml transferrin, 0.67 ug/ml sodium selenium) and antibiotics (100 units/ml penicillin G sodium, 100 μg/ml streptomycin sulfate, 0.25 μg/ml amphotericin B) in a humidified atmosphere of 5% CO2/95% air at 37° C. Twenty four hours prior to study, cells were fed with serum and growth factor free media.
To determine whether activation of GABAA receptors induces membrane potential changes in cultured human airway smooth muscle cells the FLIPR in vitro fluorescent dye assay (Molecular Devices) was used. Human airway smooth muscle cells (prepared as described in Reference Examples 1 and 2) were grown to 100% confluence in 96 well black-walled plates and were washed with warmed (37° C.) low chloride buffer (consisting of in mM: 160 sodium-D-gluconate, 4.5 potassium-D-gluconate, 2 CaCl2, 1 MgCl2, 10 D-glucose, and 10 Hepes pH 7.4) four times. A stock solution (100% dye) of FLIPR blue dye was prepared by reconstitution of 1 vial (125 mg) with 100 ml of the low chloride buffer (assay buffer). A 50% working stock was prepared by further diluting the reconstituted blue dye 1:1 with assay buffer and was used to load cells (90 ul/well) over 20 minutes at 37° C. All reagents were dissolved in assay buffer. Baseline fluorescence was measured for 3 min prior to the first control additions (assay buffer). Three minutes later, airway smooth muscle cells were exposed to varying concentrations of THIP (0-10 mM) to determine a dose response. The fluorescence produced by membrane potential change following solution additions was quantified after subtracting changes induced by assay buffer alone. For subsequent antagonist assays, the first solution injected was either assay buffer, vehicle control (0.05% DMSO final), or the GABAA receptor antagonist picrotoxin (200 uM final) followed THIP (either 0.5 or 1 mM).

GABAA receptors [4] = assay: Whole cell voltage clamp electrophysiology (Fluxion microfluidic plate) of human airway smooth muscle cells; assay type: cell-based
Description: as §1
On the day of the assay, human airway smooth muscle cells (prepared as described in Reference Examples 1 and 2) were released from collagen-coated plates with collagenase type IV (Sigma C5138; 500 units/ml). The cells were resuspended in external buffer solution (In mM: NaCl 147, MgCl2 2, CaCl2 2, HEPES 10, dextrose 10; pH 7.2, osmolarity 320 mOsm) and rocked at room temperature to allow cells to obtain a spherical shape. Approximately 1 million cells were centrifuged (300×g, 3 min), washed ×2 in external buffer, and loaded (final volume of 400 uL) into a Fluxion microfluidic plate with each experimental group representing an ordered arrangement of 20 cells in parallel whole cell configuration. Following generation of adequate cellular membrane seals (40-120 MΩ), whole cell recordings were obtained under voltage clamp conditions (−80 mV) to a dose response to THIP (0.3 uM-300 uM). In separate assays cells were also co-treated simultaneously with 20 uM gabazine (GABAA receptor antagonist) and 25 uM THIP. In addition, to confirm that THIP-induced currents were due to chloride efflux, in separate experiments the intracellualar buffer (in mM: MgCl2 4, EGTA 10, HEPES 10, CsCl 130, Mg-ATP 4, CsOH 10, pH 7.2, 290 mOsM) was modified by replacing […] CsCl with 140 Cs gluconate to inhibit the magnitude of the […] current at −80 mV.

[5] = tested on: Guinea pig (GP) tracheal rings; assay: Isoproterenol-mediated relaxation of acetylcholine-contracted guinea pig tracheal rings with α4 GABAA selective agonist; details: for potentiation of isoproterenol-mediated relaxation: single dose 500 uM THIP or 200 uM taurine, acetylcholine pre-contracted; for EC50: Cavia porcellus, read-out: EC50 of isoproterenol relaxation concentration-response curve

## COc1ccc2c(c1)C(=O)N1CCC[C@H]1c1c(C(=O)OC(C)C)ncn1-2
other
  melting point: 215 to 217 °C

## CNC(=O)c1ncn2c1[C@@H]1CCCN1C(=O)c1cc(OC)ccc1-2 [CM-D-45, N-methyl (S)-11,12,13,13a-tetrahydro-7-methoxy-9-oxo-9H-imidazo-[1,5-a]pyrrolo-[2,1-c][1,4]-benzodiazepine-1-carboxamide]
[1]
  functional selectivity among GABAAR α-subtypes (inward currents, agonist activity): selectivity bias in favor or α4 and α6-GABAAR
Human Jurkat E6-1 cells
  membrane polarization, inward rectifying currents: hyperpolarizing membrane dose-response signals can be generated
Murine tracheal rings
  relaxation of an acetylcholine induced contraction (percent of remaining tone): relaxation of an acetylcholine (Ach) induced contraction in murine tracheal rings from wild-type but not GABAA α4 knockout mice
GP tracheal rings; 1 uM substance P contraction
  muscle force, % of initial force remaining after substance P contraction: 61.3% and 61.3±16.9%
GP tracheal rings; 10 mM TEA contraction
  muscle force, % of initial TEA-induced force remaining: 54.3% and 54.3±14.3%

## COCc1ncn2c1CN(C)C(=O)c1cc(Cl)ccc1-2 [PWZ-029]
[2]
  change in airway smooth muscle force: increase in force

## Oc1noc2c1CCNC2 [THIP]
GABAA receptors [3]; THIP 0 to 10 mM, low chloride buffer, n=12, read-out: EC50, change in relative fluorescence (membrane potential)
  EC50: 245000 nM
GABAA receptors [4]; 10 uM THIP, 11/12 arrays of 20 cells in whole cell configuration
  mean evoked current: −670.4+27.6 pA
GABAA receptors [4]; THIP 0 to 300 uM, voltage clamped at −80 mV, read-out: EC50, current elicited in whole cell configuration
  EC50: ~15000 nM and 15000 nM
[5]; THIP (500 uM) plus isoproterenol, n=8
  muscle force, % of initial acetylcholine-induced force: 22.9 ±13.2%
[5]
  potentiation of isoproterenol-mediated relaxation: significantly potentiated the relaxant effects of isoproterenol

## COc1ccc(-c2ccc(=N)n(CCCC(=O)O)n2)cc1 [gabazine]
GABAA receptors [4]; gabazine with THIP 25 uM, −80 mV
  attenuation of THIP induced whole cell currents: attenuation of the THIP-induced current; also recorded: attenuation of THIP induced whole cell currents
[5]; gabazine pretreatment 15 min prior to acetylcholine
  reversal of agonist potentiation of isoproterenol-mediated relaxation: significantly reversed the THIP potentiation of isoproterenol-mediated relaxation; also recorded: significantly reversed the potentiation of isoproterenol-mediated relaxation provided by taurine
[5]; gabazine pretreatment, then THIP plus isoproterenol, n=8
  muscle force, % of initial acetylcholine-induced force: 53.1±11.4%

## CC(C)NCC(O)c1ccc(O)c(O)c1 (stereo not shown) [isoproterenol]
[5]; isoproterenol after a single concentration of 200 uM taurine, n=7
  EC50: 2.4 nM
[5]; isoproterenol after a single concentration of 500 uM THIP, n=8
  EC50: 7.6 ± 0.5 nM
[5]; isoproterenol only (THIP experiment), n=8
  EC50: 32.8 nM
[5]; isoproterenol only (taurine experiment), n=6
  EC50: 15.8 nM
[5]; isoproterenol with 200 uM taurine subsequent to 200 μM gabazine pretreatment, n=7
  EC50: 4.7 nM
[5]; isoproterenol with 500 uM THIP subsequent to 500 μM gabazine pretreatment, n=8
  EC50: 11.8 ± 0.6 nM
[5]; isoproterenol alone at low concentration, n=8
  muscle force, % of initial acetylcholine-induced force: 76.5±8.5%

## NCCS(=O)(=O)O [taurine]
[5]
  potentiation of isoproterenol-mediated relaxation: potentiated isoproterenol-mediated relaxation

## picrotoxin
GABAA receptors [3]
  antagonism of THIP-induced fluorescent / membrane potential changes: attenuation of THIP-induced fluorescent changes
GABAA receptors [3]; listed as Picrotoxin
  antagonism of THIP-induced fluorescent / membrane potential changes: antagonism of THIP mediated membrane potential changes persisted even under conditions of high dose THIP
